Each structure is given as a SMILES string.

The test system of this series is Dkk1-LRP5-TCF-Luciferase. Nature of the series: Functional Dkk1-LRP5-TCF-Luciferase Assay in U2OS Cells. As to conditions: for fold induction at 2 µM / fold induction at 20 µM / EC50: Homo sapiens, U2OS; for fold induction at 2 µM: read-out: B = TCF ACTIVITY/DMSO CONTROL Fold induction @ 2.0 uM, 2.0 uM compound; for fold induction at 20 µM: read-out: C = TCF ACTIVITY/DMSO CONTROL Fold induction @ 20.0 uM, 20.0 uM compound; for A = MAX FOLD Induction/DMSO CONTROL: maximum fold induction over DMSO control.

`O[C@@H]1CCN(CC2CCN(c3nccc(-c4ccc5ccccc5c4)n3)C2)C1` (stereo partly drawn) [(3R)-1-({1-[4-(2-naphthyl)pyrimidin-2-yl]pyrrolidin-3-yl}methyl)pyrrolidin-3-ol]: the fold induction at 2 µM came out at 1.2.

As to `N[C@@H]1CCN(c2nccc(-c3ccc4ccccc4c3)n2)C1` [(3R)-1-[4-(2-naphthyl)pyrimidin-2-yl]pyrrolidin-3-amine], the fold induction at 2 µM stood at 1.62 and the fold induction at 20 µM stood at 0.01.

As for `O[C@@H]1CCCN([C@@H]2CCN(c3nccc(-c4ccc5ccccc5c4)n3)C2)C1` [(3R)-1-{(3R)-1-[4-(2-naphthyl)pyrimidin-2-yl]pyrrolidin-3-yl}piperidin-3-ol], the EC50 came to 2200 nM.

Turning to `O[C@@H]1CCCN([C@H]2CCN(c3nccc(-c4ccc5ccccc5c4)n3)C2)C1` [(3R)-1-{(3S)-1-[4-(2-naphthyl)pyrimidin-2-yl]pyrrolidin-3-yl}piperidin-3-ol], the fold induction at 20 µM stood at 2.9.

In the case of `O=CN1CC[C@@H](Nc2nccc(-c3ccc4ccccc4c3)n2)C1` [(3R)-3-{[4-(2-naphthyl)pyrimidin-2-yl]amino}pyrrolidine-1-carbaldehyde], the response was half-maximal at 7170 nM (EC50), the fold induction at 2 µM is 1.03, the fold induction at 20 µM was 2.69 and the “A = MAX FOLD Induction/DMSO CONTROL” value is 5.305 fold.

With `NC(=O)N1CC[C@@H](Nc2nccc(-c3ccc4ccccc4c3)n2)C1` [(3R)-3-{[4-(2-naphthyl)pyrimidin-2-yl]amino}pyrrolidine-1-carboxamide], a half-maximal response (EC50) required 8710 nM, the fold induction at 20 µM was 2.42 and the “A = MAX FOLD Induction/DMSO CONTROL” value worked out at 5.295 fold.

As to `CN(C)[C@@H]1CCN(C[C@H]2CCN(c3nccc(-c4ccc5ccccc5c4)n3)C2)C1` [(3R)—N,N-dimethyl-1-({(3R)-1-[4-(2-naphthyl)pyrimidin-2-yl]pyrrolidin-3-yl}methyl)pyrrolidin-3-amine], the fold induction at 2 µM stood at 2.24, the fold induction at 20 µM was determined as 0.02 and the “A = MAX FOLD Induction/DMSO CONTROL” value is reported as 1.440 fold.

Consider `CN(C)[C@@H]1CCN(C[C@@H]2CCN(c3nccc(-c4ccc5ccccc5c4)n3)C2)C1` [(3R)—N,N-dimethyl-1-({(3S)-1-[4-(2-naphthyl)pyrimidin-2-yl]pyrrolidin-3-yl}methyl)pyrrolidin-3-amine], for which the fold induction at 2 µM was 1.53 and the fold induction at 20 µM stood at 0.03.

As to `CN(C)[C@@H]1CCN(c2nccc(-c3ccc4ccccc4c3)n2)C1` [(3R)—N,N-dimethyl-1-[4-(2-naphthyl)pyrimidin-2-yl]pyrrolidin-3-amine], the EC50 came to 3560 nM, the fold induction at 2 µM is 2.88, the fold induction at 20 µM is 0.065 and the “A = MAX FOLD Induction/DMSO CONTROL” value amounted to 5.193 fold.

In the case of `CN(C)[C@@H]1CCN(C(=O)[C@H]2CCCN2c2nccc(-c3ccc4ccccc4c3)n2)C1` [(3R)—N,N-dimethyl-1-{1-[4-(2-naphthyl)pyrimidin-2-yl]-D-prolyl}pyrrolidin-3-amine], the fold induction at 2 µM came out at 0.93, the fold induction at 20 µM was 1.85 and the “A = MAX FOLD Induction/DMSO CONTROL” value stood at 1.630 fold.

For the compound `CN(C)[C@@H]1CCN(C(=O)[C@@H]2CCCN2c2nccc(-c3ccc4ccccc4c3)n2)C1` [(3R)—N,N-dimethyl-1-{1-[4-(2-naphthyl)pyrimidin-2-yl]-L-prolyl}pyrrolidin-3-amine], the fold induction at 2 µM turned out to be 1.1, the fold induction at 20 µM was 4.43 and the “A = MAX FOLD Induction/DMSO CONTROL” value was 2.335 fold.

Consider `CN(C)C(=O)N1CC[C@@H](Nc2nccc(-c3ccc4ccccc4c3)n2)C1` [(3R)—N,N-dimethyl-3-{[4-(2-naphthyl)pyrimidin-2-yl]amino}pyrrolidine-1-carboxamide], for which the fold induction at 20 µM came to 1.33.

With `CN(C)S(=O)(=O)N1CC[C@@H](Nc2nccc(-c3ccc4ccccc4c3)n2)C1` [(3R)—N,N-dimethyl-3-{[4-(2-naphthyl)pyrimidin-2-yl]amino}pyrrolidine-1-sulfonamide], the EC50 is 3160 nM, the fold induction at 20 µM came out at 2.31 and the “A = MAX FOLD Induction/DMSO CONTROL” value amounted to 2.510 fold.

Turning to `c1ccc2cc(-c3ccnc(N4CC[C@@H](NCCN5CCOCC5)C4)n3)ccc2c1` [(3R)—N-(2-morpholin-4-ylethyl)-1-[4-(2-naphthyl)pyrimidin-2-yl]pyrrolidin-3-amine], the fold induction at 2 µM came to 1.71 and the fold induction at 20 µM is 0.21.

Turning to `CC(C)(C)N[C@@H]1CCN(c2nccc(-c3ccc4ccccc4c3)n2)C1` [(3R)—N-(tert-butyl)-1-[4-(2-naphthyl)pyrimidin-2-yl]pyrrolidin-3-amine], the fold induction at 2 µM is 1.56 and the fold induction at 20 µM was found to be 0.29.

As for `CN(C1CCCCC1)[C@@H]1CCN(c2nccc(-c3ccc4ccccc4c3)n2)C1` [(3R)—N-cyclohexyl-N-methyl-1-[4-(2-naphthyl)pyrimidin-2-yl]pyrrolidin-3-amine], the fold induction at 2 µM stood at 1.07 and the fold induction at 20 µM was 1.77.

With `CCNC(=O)N1CC[C@@H](Nc2nccc(-c3ccc4ccccc4c3)n2)C1` [(3R)—N-ethyl-3-{[4-(2-naphthyl)pyrimidin-2-yl]amino}pyrrolidine-1-carboxamide], the fold induction at 20 µM was determined as 2.01 and the “A = MAX FOLD Induction/DMSO CONTROL” value amounted to 1.460 fold.

For the compound `CN[C@@H]1CCN(c2nccc(-c3ccc4ccccc4c3)n2)C1` [(3R)—N-methyl-1-[4-(2-naphthyl)pyrimidin-2-yl]pyrrolidin-3-amine], the fold induction at 2 µM is 1.2.

With `N[C@@H]1CCN([C@@H]2CCN(c3nccc(-c4ccc5ccccc5c4)n3)C2)C1` [(3R,3′R)-1′-[4-(2-naphthyl)pyrimidin-2-yl]-1,3′-bipyrrolidin-3-amine], the fold induction at 2 µM was determined as 1.39.

For the compound `O[C@@H]1CCN([C@@H]2CCN(c3nccc(-c4ccc5ccccc5c4)n3)C2)C1` [(3R,3′R)-1′-[4-(2-naphthyl)pyrimidin-2-yl]-1,3′-bipyrrolidin-3-ol], the fold induction at 20 µM came to 2.5.

`CN(C)[C@@H]1CCN([C@@H]2CCN(c3nccc(-c4ccc5ccccc5c4)n3)C2)C1` [(3R,3′R)-N,N-dimethyl-1′-[4-(2-naphthyl)pyrimidin-2-yl]-1,3′-bipyrrolidin-3-amine]: the fold induction at 2 µM worked out at 2.71, the fold induction at 20 µM was determined as 0.01 and the “A = MAX FOLD Induction/DMSO CONTROL” value is 1.710 fold.

Consider `O[C@@H]1CCN([C@H]2CCN(c3nccc(-c4ccc5ccccc5c4)n3)C2)C1` [(3R,3′S)-1′-[4-(2-naphthyl)pyrimidin-2-yl]-1,3′-bipyrrolidin-3-ol], for which the fold induction at 2 µM worked out at 2.1.

Take `CN(C)[C@@H]1CCN([C@H]2CCN(c3nccc(-c4ccc5ccccc5c4)n3)C2)C1` [(3R,3′S)-N,N-dimethyl-1′-[4-(2-naphthyl)pyrimidin-2-yl]-1,3′-bipyrrolidin-3-amine]: a half-maximal response (EC50) required 1070 nM, the fold induction at 2 µM is 4.17 and the “A = MAX FOLD Induction/DMSO CONTROL” value is 4.637 fold.

Consider `O[C@H]1CCCN(CC2CCN(c3nccc(-c4ccc5ccccc5c4)n3)C2)C1` (stereo partly drawn) [(3S)-1-({1-[4-(2-naphthyl)pyrimidin-2-yl]pyrrolidin-3-yl}methyl)piperidin-3-ol], for which the EC50 amounted to 1010 nM, the fold induction at 2 µM is 4.34 and the “A = MAX FOLD Induction/DMSO CONTROL” value is on record as 6.950 fold.

As to `O[C@H]1CCN(CC2CCN(c3nccc(-c4ccc5ccccc5c4)n3)C2)C1` (stereo partly drawn) [(3S)-1-({1-[4-(2-naphthyl)pyrimidin-2-yl]pyrrolidin-3-yl}methyl)pyrrolidin-3-ol], the fold induction at 2 µM stood at 3.2.

`FC(F)(F)CN[C@H]1CCN(c2nccc(-c3ccc4ccccc4c3)n2)C1` [(3S)-1-[4-(2-naphthyl)pyrimidin-2-yl]-N-(2,2,2-trifluoroethyl)pyrrolidin-3-amine]: the fold induction at 2 µM came out at 0.83 and the fold induction at 20 µM was found to be 1.38.

For the compound `N[C@H]1CCN(c2nccc(-c3ccc4ccccc4c3)n2)C1` [(3S)-1-[4-(2-naphthyl)pyrimidin-2-yl]pyrrolidin-3-amine], the fold induction at 2 µM came out at 1.48.

In turn, `O[C@H]1CCCN([C@@H]2CCN(c3nccc(-c4ccc5ccccc5c4)n3)C2)C1` [(3S)-1-{(3R)-1-[4-(2-naphthyl)pyrimidin-2-yl]pyrrolidin-3-yl}piperidin-3-ol] displayed an EC50 of 2400 nM.

In the case of `O[C@H]1CCCN([C@H]2CCN(c3nccc(-c4ccc5ccccc5c4)n3)C2)C1` [(3S)-1-{(3S)-1-[4-(2-naphthyl)pyrimidin-2-yl]pyrrolidin-3-yl}piperidin-3-ol], the response was half-maximal at 930 nM (EC50).

Consider `O=CN1CC[C@H](Nc2nccc(-c3ccc4ccccc4c3)n2)C1` [(3S)-3-{[4-(2-naphthyl)pyrimidin-2-yl]amino}pyrrolidine-1-carbaldehyde], for which the EC50 was 6800 nM, the fold induction at 2 µM was 1.8, the fold induction at 20 µM worked out at 3.51 and the “A = MAX FOLD Induction/DMSO CONTROL” value was determined as 3.165 fold.

For `NC(=O)N1CC[C@H](Nc2nccc(-c3ccc4ccccc4c3)n2)C1` [(3S)-3-{[4-(2-naphthyl)pyrimidin-2-yl]amino}pyrrolidine-1-carboxamide], the EC50 turned out to be 1520 nM, the fold induction at 2 µM came out at 2.05, the fold induction at 20 µM was determined as 2.94 and the “A = MAX FOLD Induction/DMSO CONTROL” value was found to be 2.750 fold.

As for `CN(C)[C@H]1CCN(C[C@H]2CCN(c3nccc(-c4ccc5ccccc5c4)n3)C2)C1` [(3S)—N,N-dimethyl-1-({(3R)-1-[4-(2-naphthyl)pyrimidin-2-yl]pyrrolidin-3-yl}methyl)pyrrolidin-3-amine], the fold induction at 2 µM was found to be 2.55, the fold induction at 20 µM came to 0.02 and the “A = MAX FOLD Induction/DMSO CONTROL” value worked out at 2.260 fold.

For `CN(C)[C@H]1CCN(C[C@@H]2CCN(c3nccc(-c4ccc5ccccc5c4)n3)C2)C1` [(3S)—N,N-dimethyl-1-({(3S)-1-[4-(2-naphthyl)pyrimidin-2-yl]pyrrolidin-3-yl}methyl)pyrrolidin-3-amine], the fold induction at 2 µM was 2.08, the fold induction at 20 µM came to 0.01 and the “A = MAX FOLD Induction/DMSO CONTROL” value was determined as 1.660 fold.

A word on the EC50: it is the concentration needed to bring the measured effect to its halfway point. High values mean lower potency in that assay, low ones higher potency in that assay.
